Data set [1] in a line: Apparent lipophilicity log D at pH 7.4 (octanol / pH 7.4 surfactant free buffer). Type of data set: physicochemical. From the text:
The log DpH=7.4 value is a log of the distribution efficiency (ratio of concentrations of the disclosed bioreversible derivatives in octanol solvent to a pH 7.4 aqueous surfactant free buffer media).
TABLE 5 summarized the intrinsic lipophilicity and apparent lipophilicity of hydroxy N-substituted-2-aminotetralins in comparison with those of some examples of the corresponding bioreversible derivatives according to the disclosure.

For data set [2] the following is noted: cited from earlier work.
Data set [3] is described as follows: Pharmacokinetics of dosage forms at varied doses of Composition 1c-10 containing caprate ester A10. It counts as in vivo. The note with it: serum rotigotine, human, oral, Composition 1c-10 with A10. Here is the method:
Serial blood samples were drawn at predetermined time (e.g., t=0, 12, 24, etc.) and analyzed for rotigotine concentration using a validated HPLC-MS/MS analytical method. The rotigotine Cmax, ratio of rotiogtine peak levels to rotigotine equivalent, Cmax/mg, rotiogotine Cavgt1-t2, rotigotine steady state maximum concentration, Css-max, rotigotine AUCt1-t2 and ratio of rotigotine area under the curve to rotigotine equivalent dose in mg, AUCt1-t2/mg, were calculated in the serum of the subjects. Pharmacokinetic and statistical analyses were performed on the data obtained from the subjects, the pharmacokinetic parameters were defined as follows:
[…] Serial blood samples were drawn for the human subjects at predetermined time (e.g., t=0, 12, 24, etc.) and analyzed to determine pharmacokinetic parameters in the serum of the subjects.

The conditions of data set [4]: no method; cited from earlier work.
Where [5] appears, read: dose 0.1 mg as rotigotine equivalent.
The mark [6] stands for this setting: dose 500 mg as rotigotine equivalent.

The text below walks through data of patent US9956201B2, “Compositions comprising bioreversible derivatives of hydroxy N-substituted-2-aminotetralins, and related dosage forms” (Spriaso LLC, priority 2014, dated 2018).

Turning to `CCCN(CCc1cccs1)[C@H]1CCc2c(O)cccc2C1` [Compound A1, (S)-6-[propyl(2-thiophen-2-ylethyl)amino]-5,6,7,8-tetrahydronaphthalen-1-ol], the “Apparent Lipophilicity logD7.4” value in data set [1] is 1-1.9. Further, the “activity upon oral administration” value in data set [2] (preclinical data) is listed as “zero to limited activity”.

For the molecule `CCCCCCCCCC(=O)Oc1cccc2c1CCC(N(CCC)CCc1cccs1)C2` (stereo not drawn) [Compound A10], in data set [1], the “Apparent Lipophilicity logD7.4” value was over 4. For the same molecule, the “Mean AUC/mg” value is <1.25 × 10^−9 hr..^−1 in data set [3] (setting [5]) and >188 × 10^−6 hr..^−1 in data set [3] (setting [6]). Also, the “Mean Cmax/mg” value is under 1e-10 mL⁻¹ in data set [3] (setting [5]) and over 1.2e-05 mL⁻¹ in data set [3] (setting [6]).

For the molecule `CCCN[C@H]1CCc2c(O)cccc2C1` [Compound B1, (6S)-(−)-5-hydroxy-N-propyl-2-aminotetralin], the pKa result in data set [4] is reported as “about 10.6”. Besides, the “Apparent Lipophilicity logD7.4” value in data set [1] is recorded as −0.5.

Consider `CCCCCCCCCCCCCCCC(=O)Oc1cccc2c1CCC(NCCC)C2` (stereo not drawn) [Compound B5], for which the “Apparent Lipophilicity logD7.4” value in data set [1] was 6.5-7.5.

With `CCCN(CCC)C1CCc2cccc(O)c2C1` (stereo not drawn) [Compound C1, 8-hydroxy-N,N-dipropyl-2-aminotetralin], the pKa result in data set [4] is on record as “about 10.54”.

For `CCCN(CCC)C1CCc2ccc(O)cc2C1` (stereo not drawn) [Compound C2, 7-hydroxy-N,N-dipropyl-2-aminotetralin], the pKa result in data set [4] is “about 10.54”.

Take `CCCN(CCC)C1CCc2c(O)cccc2C1` (stereo not drawn) [Compound C3, 5-hydroxy-N,N-dipropyl-2-aminotetralin]: the pKa result in data set [4] is on record as “about 10.5”.

Take `CCCCCCCCCCCC(=O)Oc1cccc2c1CC(N(CCC)CCC)CC2` (stereo not drawn) [Compound C7, Laurate (C12) Ester of 8-OH-DPAT]: the “Apparent Lipophilicity logD7.4” value in data set [1] is 6.5-7.5.

As to `CCCN(CCc1cccs1)[C@H]1CCc2c(O)cccc2C1` [Compound N-0923], the “bioavailability after oral administration” value in data set [2] (animal model) was “about 0.5%”.
